Values after ≈ are worked out from the molar mass of the structure shown.
Key:
Vero = assay: Cytotoxicity against African green monkey Vero cells assessed as cell viability after 72 hrs by MTT assay; type: cell-based; conditions: Chlorocebus sabaeus
[1] = tested on: Mycobacterium tuberculosis; assay: Antimycobacterial activity against Mycobacterium tuberculosis H37Rv assessed as growth inhibition after 5 days by microplate Alamar Blue assay; type: functional; conditions: 120 h

SMILES | IC50 (Vero) [µg/mL] | MIC [1] [µg/mL]
COc1nc(C)nc(/N=C(\C)c2ccccc2O)n1 | > 50 | 25 (≈ 96.8 µM)
COc1nc(C)nc(/N=C(\C)c2ccc(O)cc2)n1 | > 50 | 25 (≈ 96.8 µM)
COc1nc(C)nc(/N=C(\C)c2ccc(O)cc2O)n1 | > 50 | 25 (≈ 91.1 µM)
COc1nc(C)nc(/N=C(\C)c2cc(O)ccc2O)n1 | > 50 | 6.25 (≈ 22.8 µM)
COc1nc(C)nc(/N=C(\C)c2cc(C)ccc2O)n1 | – | 50 (≈ 184 µM)
COc1nc(C)nc(/N=C(\C)c2cccc(C)c2O)n1 | – | 50 (≈ 184 µM)
COc1nc(C)nc(/N=C(\C)c2cccc([N+](=O)[O-])c2)n1 | > 50 | 25 (≈ 87 µM)
COc1nc(C)nc(/N=C(\C)c2ccc([N+](=O)[O-])cc2)n1 | > 50 | 12.5 (≈ 43.5 µM)
COc1nc(C)nc(/N=C(\C)c2cccs2)n1 | > 50 | 25 (≈ 101 µM)
COc1nc(C)nc(/N=C(\C)c2cccnc2)n1 | – | 50 (≈ 206 µM)
COc1nc(C)nc(/N=C(\C)c2ccc3ccccc3c2)n1 | – | 50 (≈ 171 µM)
COc1nc(C)nc(/N=C(\C)c2ccc3c(c2)Cc2ccccc2-3)n1 | – | 50 (≈ 151 µM)
COc1nc(C)nc(/N=C/c2ccc(C)cc2)n1 | > 50 | 25 (≈ 103 µM)
COc1nc(C)nc(/N=C/c2ccc(N(C)C)cc2)n1 | > 50 | 25 (≈ 92.1 µM)
COc1nc(C)nc(/N=C/c2cc(OC)c(OC)c(OC)c2)n1 | > 50 | 3.12 (≈ 9.82 µM)
CCOc1cc(/C=N/c2nc(C)nc(OC)n2)ccc1O | > 50 | 25 (≈ 86.7 µM)
COc1nc(C)nc(/N=C/c2cccc([N+](=O)[O-])c2)n1 | – | 50 (≈ 183 µM)
COc1nc(C)nc(/N=C/c2ccc(Cl)cc2)n1 | > 50 | 12.5 (≈ 47.6 µM)

SMILES | IC50 (Vero) [µg/mL] | MIC [1] [µg/mL]
COc1nc(C)nc(/N=C/c2ccc(Cl)cc2Cl)n1 | > 50 | 12.5 (≈ 42.1 µM)
COc1nc(C)nc(/N=C/c2cccc(Br)c2)n1 | > 50 | 12.5 (≈ 40.7 µM)
COc1nc(C)nc(/N=C/c2ccc(Br)cc2)n1 | > 50 | 25 (≈ 81.4 µM)
COc1nc(C)nc(/N=C/c2cc(Cl)cc(Br)c2O)n1 | > 50 | 6.25 (≈ 17.5 µM)
C=CCOc1ccc(/C=N/c2nc(C)nc(OC)n2)cc1 | > 50 | 25 (≈ 87.9 µM)
COc1nc(C)nc(/N=C/c2ccc[nH]2)n1 | > 50 | 25 (≈ 115 µM)
COc1nc(C)nc(/N=C/c2cccnc2)n1 | – | 50 (≈ 218 µM)
COc1nc(C)nc(/N=C/c2c[nH]c3ccccc23)n1 | – | 50 (≈ 187 µM)
COc1nc(C)nc(/N=C/c2c3ccccc3cc3ccccc23)n1 | – | 50 (≈ 152 µM)
COc1nc(C)nc(/N=C(\C)c2ccccc2)n1 | – | 50 (≈ 206 µM)
COc1nc(C)nc(/N=C(\C)c2ccc(C)cc2)n1 | > 50 | 12.5 (≈ 48.8 µM)
COc1cccc(/C(C)=N/c2nc(C)nc(OC)n2)c1 | > 50 | 12.5 (≈ 45.9 µM)
COc1ccc(/C(C)=N/c2nc(C)nc(OC)n2)cc1 | – | 50 (≈ 184 µM)
COc1nc(C)nc(/N=C/c2ccccc2)n1 | – | 50 (≈ 219 µM)
CC[C@@H](CO)NCCN[C@@H](CC)CO [ETHAMBUTOL] | > 50 | 3.12 (≈ 15.3 µM)
NC(=O)c1cnccn1 [PYRAZINAMIDE] | > 50 | 3.12 (≈ 25.4 µM)
CN[C@@H]1[C@H](O[C@H]2[C@H](O[C@H]3[C@H](O)[C@@H](O)[C@H](N=C(N)N)[C@@H](O)[C@@H]3N=C(N)N)O[C@@H](C)[C@]2(O)C=O)O[C@@H](CO)[C@H](O)[C@H]1O [STREPTOMYCIN] | > 50 | 6.25 (≈ 10.7 µM)

— ChEMBL document CHEMBL2434920, “Synthesis, characterization and in vitro biological evaluation of some novel 1,3,5-triazine-Schiff base conjugates as potential antimycobacterial agents” (Bioorg Med Chem Lett, 2013)
